The values that follow come from patent US4136192A, “4-Hydroxy-3-nitro (cyano) coumarins” (Beecham Group Limited, priority 1975, dated 1979).

This experiment deals with slow reacting substance of anaphylaxis (SRS-A). As to the kind of experiment: SRS-A antagonism on isolated guinea pig ileum. The arrangement: species or system guinea pig ileum (SRS-A from rat). The note with it: isolated guinea pig ileum strips, rat SRS-A, tyrode with atropine and mepyramine; 50% inhibition per method; read-out: SRS-A antagonism on Guinea Pig Ileum: Approximate concentration to give inhibition of a than maximal response to SRS-A. The text has this: The compounds have been evaluated as direct antagonists of slow reacting substance of anaphylaxis (SRS-A) by assay using the isolated guinea pig ileum.
SRS-A rat was obtained from the peritoneal cavity of the rat after passive peritoneal anaphylaxis by a method based on that of R. P. Orange, D. J. Stechschulte and K. F. Austen, J. Immunology, 105 1087 (1970) as described by B. A. Spicer, J. W. Ross and H. Smith, Clin. exp. Immunol. 1975, 21, 419. The sensitizing serum containing reaginic antibody was produced in rats as described by B. A. Spicer, et. al. ibid.
2 ml of a 1 in 5 dilution of the sensitizing serum was injected by the peritoneal route into recipient rats and after 2 hours, 5 ml of tyrode solution containing 0.4 mg/ml ovalbumin (Sigma Grade III) and 50 μg/ml heparin was injected by the same route. Five minutes after challenge the rats were stunned and bled and the peritoneal fluids collected into polycarbonate tubes in ice. After centrifugation at 150 g for 5 minutes the supernatants were combined, heated in a boiling water bath for 5 minutes, cooled and stored at -20° C. The combined peritioneal fluids contained SRS-A and were used in the antagonism studies.
The SRS-A assays were carried out on isolated strips of guinea pig ileum in tyrode solution containing atropine 5 × 10^-7 M and mepyramine 10^-6 M as described by W. E. Brocklehurst, J. Physiology, 151, 416 (1960).
The activity of the antagonists was determined by their ability to reduce submaximal responses induced by SRS-A. The antagonists were added to a 4 ml bath in 0.1 ml volumes in aqueous solution half a minute before the addition of SRS-A and were present during induced contraction. Two or three concentrations of antagonists were used and the percentage inhibition of the SRS-A response plotted against the bath concentration of antagonist. The line of best fit was drawn and the concentration to cause 50% inhibition IC50 read graphically.
With `CCCc1c(OCC(O)COc2ccc3c(O)c([N+](=O)[O-])c(=O)oc3c2)ccc(C(C)=O)c1O` (stereo not drawn) [Example 114, 7-(3-[4-Acetyl-3-hydroxy-2-n-propylphenoxy]-2-hydroxypropoxy)-4-hydroxy-3-nitrocoumarin], the IC50 is 10 nM.
Regarding `O=c1oc2ccc(OCCc3ccccc3)cc2c(O)c1[N+](=O)[O-]` [Example 115, 4-Hydroxy-3-nitro-6-(2-phenylethoxy) coumarin], the IC50 stood at 10000 nM.
On to `O=c1oc2cc(OCCc3ccccc3)ccc2c(O)c1[N+](=O)[O-]` [Example 116, 4-Hydroxy-3-nitro-7-(2-phenylethoxy) coumrin], for which the IC50 was determined as 1000 nM.
Take `O=c1oc2ccc(OCCCc3ccccc3)cc2c(O)c1[N+](=O)[O-]` [Example 118, 4-Hydroxy-3-nitro-6-(3-phenylpropoxy) coumarin]: the IC50 stood at 1000 nM.
Consider `O=c1oc2cc(OCCCc3ccccc3)ccc2c(O)c1[N+](=O)[O-]` [Example 119, 4-Hydroxy-3-nitro-7-(3-phenylpropoxy) coumarin], for which the IC50 was found to be 1000 nM.
To `CC(=O)c1ccc(CCCOc2ccc3c(O)c([N+](=O)[O-])c(=O)oc3c2)cc1` [Example 120, 7-(3-[4-Acetylphenyl]propoxy)-4-hydroxy-3-nitrocoumarin] belongs 1000 nM; to `O=c1oc2cc(OCCCCc3ccccc3)ccc2c(O)c1[N+](=O)[O-]` [Example 121, 4-Hydroxy-3-nitro-7-(4-phenylbutoxy) coumarin], 1000 nM; to `O=c1oc2cc(OCCCCc3ccc(Cl)cc3)ccc2c(O)c1[N+](=O)[O-]` [Example 122, 7-(4-[4-Chlorophenyl]butoxy)-4-hydroxy-3-nitrocoumarin], 1000 nM.
`Cc1ccc(CCCCOc2ccc3c(O)c([N+](=O)[O-])c(=O)oc3c2)cc1` [Example 123, 4-Hydroxy-7-(4-[4-methylphenyl]butoxy)-3-nitrocoumarin]: the IC50 stood at 1000 nM.
Regarding `O=c1oc2ccc(OCCOc3ccccc3)cc2c(O)c1[N+](=O)[O-]` [Example 125, 4-Hydroxy-3-nitro-6-(2-phenoxyethoxy) coumarin], the IC50 came to 10000 nM.
To `O=c1oc2cc(OCCOc3ccccc3)ccc2c(O)c1[N+](=O)[O-]` [Example 126, 4-Hydroxy-3-nitro-7-(2-phenoxyethoxy) coumarin] belongs 10000 nM.
Take `O=c1oc2ccc(OCCCOc3ccccc3)cc2c(O)c1[N+](=O)[O-]` [Example 128, 4-Hydroxy-3-nitro-6-(3-phenoxypropoxy) coumarin]: the IC50 worked out at 1000 nM.
Turning to `O=c1oc2cc(OCCCOc3ccccc3)ccc2c(O)c1[N+](=O)[O-]` [Example 129, 4-Hydroxy-3-nitro-7-(3-phenoxypropoxy) coumarin], the IC50 was determined as 1000 nM.
To `Cc1cc(OCCCOc2ccccc2)cc2oc(=O)c([N+](=O)[O-])c(O)c12` [Example 130, 4-Hydroxy-5-methyl-3-nitro-7-(3-phenoxypropoxy)] belongs 1000 nM.
As for `CCCc1c(OCCCOc2ccccc2)ccc2c(O)c([N+](=O)[O-])c(=O)oc12` [Example 131, 4-Hydroxy-3-nitro-7-(3-phenoxy-propoxy) 8-n-propylcoumarin], the IC50 amounted to 1000 nM.
To `CCc1cc2c(O)c([N+](=O)[O-])c(=O)oc2cc1OCCCOc1ccccc1` [Example 132, 6-Ethyl-4-hydroxy-3-nitro-7-(3-phenoxy-propoxy) coumarin] belongs 10000 nM; to `O=c1oc2cc(OCCCOc3ccc(Cl)cc3)ccc2c(O)c1[N+](=O)[O-]` [Example 133, 7-(3-[4-Chlorophenoxy]propxy-4-hydroxy-3-nitrocoumarin], 1000 nM.
For `O=C(O)c1ccc(OCCCOc2ccc3c(O)c([N+](=O)[O-])c(=O)oc3c2)cc1` [Example 134, 7-(3-[4-Carboxyphenoxy]propoxy)-4-hydroxy-3-nitrocoumarin], the IC50 came out at 10000 nM.
Take `COC(=O)c1ccc(OCCCOc2ccc3c(O)c([N+](=O)[O-])c(=O)oc3c2)cc1` [Example 135, 7-(3-[4-Carbomethoxyphenoxy]propoxy)-4-hydroxy-3-nitrocoumarin]: the IC50 is 10000 nM.
Regarding `CC(=O)c1ccc(OCCCOc2ccc3c(O)c([N+](=O)[O-])c(=O)oc3c2)cc1` [Example 136, 7-(3-[4-Acetylphenoxy]propoxy)-4-hydroxy-3-nitrocoumarin], the IC50 amounted to 1000 nM.
Consider `Cc1ccc(OCCCOc2ccc3c(O)c([N+](=O)[O-])c(=O)oc3c2)c([N+](=O)[O-])c1` [Example 137, 4-Hydroxy-7-(3-[4-methyl-2-nitrophenoxy]propoxy)-3-nitrocoumarin], for which the IC50 stood at 10000 nM.
For `CC(=O)c1ccc(OCCCOc2ccc3c(O)c([N+](=O)[O-])c(=O)oc3c2)cc1O` [Example 138, 7-(3-[4-Acetyl-3-hydroxyphenoxy]propoxy)-4-hydroxy-3-nitrocoumarin], the IC50 came out at 1000 nM.
With `CCCc1c(OCCCOc2ccc3c(O)c([N+](=O)[O-])c(=O)oc3c2)ccc(C(C)=O)c1O` [Example 139, 7-(3-[4-Acetyl-3-hydroxy-2-n-propylphenoxy]propoxy)-4-hydroxy-3-nitrocoumarin] the figure was 100 nM; with `O=C(O)c1ccc(OCC(O)COc2ccc3c(O)c([N+](=O)[O-])c(=O)oc3c2)cc1` (stereo not drawn) [Example 140, 7-(3-[4-Carboxyphenoxy]-2-hydroxy-propoxy)-4-hydroxy-3-nitrocoumarin], 10000 nM; with `O=c1oc2cc(OCC(O)COc3ccccc3)ccc2c(O)c1[N+](=O)[O-]` (stereo not drawn) [Example 141, 4-Hydroxy-7-(2-hydroxy-3-phenoxypropoxy)-3-nitrocoumarin], 10000 nM.
Turning to `CC(=O)c1ccc(OCC(O)COc2ccc3c(O)c([N+](=O)[O-])c(=O)oc3c2)cc1O` (stereo not drawn) [Example 143, 7-(3-[4-Acetyl-3-hydroxyphenoxy]2-hydroxypropoxy)-4-hydroxy-3-nitrocoumarin], the IC50 was found to be 10000 nM.
Turning to `CC(=O)c1ccc(OCC(O)COc2ccc3c(O)c([N+](=O)[O-])c(=O)oc3c2)c(C)c1O` (stereo not drawn) [Example 144, 7-(3-[4-Acetyl-3-hydroxy-2-methyl-phenoxy]-2-hydroxy-propoxy)-4-hydroxy-3-nitrocoumarin], the IC50 is 100 nM.
Regarding `O=c1oc2cc(OCCCCOc3ccccc3)ccc2c(O)c1[N+](=O)[O-]` [Example 150, 4-Hydroxy-3-nitro-7-(4-phenoxybutoxy)-coumarin], the IC50 stood at 1000 nM.
With `O=c1oc2ccc(OCCCCCOc3ccccc3)cc2c(O)c1[N+](=O)[O-]` [Example 151, 4-Hydroxy-3-nitro-6-(5-phenoxypentoxy)-coumarin] the figure was 1000 nM.
Take `O=c1oc2cc(OCCCCCOc3ccccc3)ccc2c(O)c1[N+](=O)[O-]` [Example 152, 4-Hydroxy-3-nitro-7-(5-phenoxypentoxy)-coumarin]: the IC50 was determined as 1000 nM.
As to `O=c1oc2ccc(OCCCCCCOc3ccccc3)cc2c(O)c1[N+](=O)[O-]` [Example 153, 4-hydroxy-3-nitro-6-(6-phenoxyhexoxy) coumarin], the IC50 came out at 100 nM.
Consider `Cc1cccc(OCCCOc2ccc3c(O)c([N+](=O)[O-])c(=O)oc3c2)c1` [Example 156, 4-Hydroxy-7-(3-[3-methylphenoxy]propoxy)-3-nitrocoumarin], for which the IC50 amounted to 1000 nM.
With `Cc1ccc(OCCCOc2ccc3c(O)c([N+](=O)[O-])c(=O)oc3c2)cc1` [Example 157, 4-Hydroxy-7-(3-[4-methylphenoxy]propoxy)-3-nitrocoumarin], the IC50 stood at 1000 nM.
Regarding `COc1ccc(OCCCOc2ccc3c(O)c([N+](=O)[O-])c(=O)oc3c2)cc1` [Example 158, 4-Hydroxy-7-(3-[4-methoxyphenoxy]propoxy)-3-nitrocoumarin], the IC50 was determined as 1000 nM.
With `O=c1oc2cc(OCCCOc3ccc(F)cc3)ccc2c(O)c1[N+](=O)[O-]` [Example 159, 7-(3-[4-Fluorophenoxy]propoxy)-4-hydroxy-3-nitrocoumarin], the IC50 was determined as 100 nM.
Turning to `N#Cc1ccc(OCCCOc2ccc3c(O)c([N+](=O)[O-])c(=O)oc3c2)cc1` [Example 160, 7-(3[4-Cyanophenoxy]-propoxy)-4-hydroxy-3-nitrocoumarin], the IC50 was found to be 10000 nM.
`O=c1oc2cc(OCCCOc3ccc(-c4ccccc4)cc3)ccc2c(O)c1[N+](=O)[O-]` [Example 161, 4-Hydroxy-7-(3-[4-phenylphenoxy]propoxy)-3-nitro-coumarin]: the IC50 is 10000 nM.
With `O=c1oc2cc(OCCCOc3ccc4c(c3)CCCC4)ccc2c(O)c1[N+](=O)[O-]` [Example 162, 4-Hydroxy-3-nitro-7-(3-[5,6,7,8-tetrahydro-2-naphthyloxy]propoxy) coumarin], the IC50 is 10000 nM.
On to `CCCc1ccccc1OCC(O)COc1ccc2c(O)c([N+](=O)[O-])c(=O)oc2c1` (stereo not drawn) [Example 163, 4-Hydroxy-7-(2-hydroxy3-[2-n-propylphenoxy]propoxy)-3-nitro-coumarin], for which the IC50 was found to be 100 nM.
